Values after ≈ are worked out from the molar mass of the structure shown.
What follows are compounds tested on Schistosoma mansoni (assay: Anthelmintic activity against Schistosoma mansoni).
Assay type: functional, organism-based
CC1N=C(c2ccccc2Cl)c2c(/N=N/c3ccc(O)c(C(C)C)c3)cccc2NC1=O (centres undefined) showed an IC50 of 5.79 µg/mL (≈ 13 µM). In the case of Cc1cc(C)c(O)c(/N=N/c2cccc3c2C(c2ccccc2Cl)=NC(C)C(=O)N3)c1 (centres undefined), the IC50 is reported as > 10 µg/mL. In the case of CCc1cc(/N=N/c2cccc3c2C(c2ccccc2Cl)=NC(C)C(=O)N3)ccc1O (centres undefined), the IC50 is reported as 5.79 µg/mL (≈ 13.4 µM). For CC1N=C(c2ccccc2Cl)c2cc(N)ccc2NC1=O (centres undefined), the IC50 was > 10 µg/mL. CC1N=C(c2ccccc2Cl)c2c(/N=N\c3ccc(O)c4ccccc34)cccc2NC1=O (centres undefined) gave an IC50 of 9.1 µg/mL (≈ 20 µM). CC1N=C(c2ccccc2Cl)c2c(/N=N/c3c(Cl)cc(O)cc3Cl)cccc2NC1=O (centres undefined) showed an IC50 of 5.79 µg/mL (≈ 12.2 µM). CC1N=C(c2ccccc2Cl)c2c(/N=N/c3c(F)cc(O)cc3F)cccc2NC1=O (centres undefined) was tested, and the IC50 was 3.8 µg/mL (≈ 8.62 µM). Work on CC1NC(c2ccccc2Cl)c2cc([N+](=O)[O-])ccc2NC1=O (centres undefined) yielded an IC50 of 1.3 µg/mL (≈ 3.92 µM). CC1NC(c2ccccc2Cl)c2cc([N+](=O)[O-])ccc2NC1=S (centres undefined) was tested, and the IC50 was 4.75 µg/mL (≈ 13.7 µM). In the case of CC1N=C(c2ccccc2Cl)c2c(/N=N\c3c(O)ccc4ccccc34)cccc2NC1=O (centres undefined), the IC50 is reported as > 10 µg/mL. For CC1N=C(c2ccccc2Cl)c2c(/N=N/c3ccc(O)cc3)cccc2NC1=O (centres undefined), the IC50 was > 10 µg/mL. With CC1N=C(c2ccccc2Cl)c2c(/N=N/c3ccc(O)cc3Br)cccc2NC1=O (centres undefined) the IC50 was 10 µg/mL (≈ 20.7 µM). In the case of CC1N=C(c2ccccc2Cl)c2cc([N+](=O)[O-])ccc2NC1=S (centres undefined), the IC50 is reported as 0.35 µg/mL (≈ 1.01 µM). C[C@@H]1N=C(c2ccccc2Cl)c2cc([N+](=O)[O-])ccc2NC1=O [MECLONAZEPAM] gave an IC50 of 0.37 µg/mL (≈ 1.12 µM).

Reference: ChEMBL document CHEMBL1143920, “Meclonazepam analogues as potential new antihelmintic agents” (Bioorg Med Chem Lett, 2008)
